Results as given in ChEMBL document CHEMBL1201862, “PubChem BioAssay data set” (2004).
Calls of active or inactive are those of the source.

Columns and labels:
[1] = luciferase reporter signal suppression in cells – H4 neuroglioma cells, luminescence, dose response (AID 1990); type: functional, cell-based
[2] = Luminescence Cell-Based Dose Response HTS to Identify Inhibitors of 5'UTR Stem-Loop Driven Prion Protein mRNA Translation in H4 Neuroglioblastoma Cells. [Related pubchem assays: 1827 (Project Summary), 1813 (Primary HTS)]; type: functional
[3] = alpha-synuclein stem-loop luciferase translation blockers – H4 neuroglioma cells, luminescence, confirmation (AID 1988); type: functional, cell-based
[4] = molecular target: Mothers against decapentaplegic homolog 3 (Homo sapiens, UniProt P84022); assay: inhibitors of SMAD-driven TGF-beta signaling – dose response (AID 715); type: functional
[5] = viability of PTEN-deleted HCT116 cells – cell-based, HCT116 PTEN knockout, dose response (AID 1047); type: functional;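 also: HCT116 colon tumor cells with PTEN knocked out; cells exposed to compound for 60 hours before readout; potency for loss of cell viability measured by luminescence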
[6] = HepG2 cell cytotoxicity, dose response, cytotoxicity control for non-replicating M. tuberculosis project (AID 489018); type: functional; conditions: Mycobacterium tuberculosis
[7] = Vero E6 cell cytotoxicity, dose response, cytotoxicity control for non-replicating M. tuberculosis project, secondary assay (AID 492998); type: functional, VeroE6; conditions: Vero C1008
[8] = Intein inhibitors as potential Tuberculosis drugs, a cytotoxicity screen. [Related pubchem assays (depositor defined):AID2221, AID2223, AID434968, AID435010, AID449749, AID449750, AID489010]; type: functional
Cysteine protease ATG4B = molecular target: T1, Cysteine protease ATG4B (Homo sapiens, UniProt Q9Y4P1); type: functional;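 also: Fluorescence-based dose-response confirmation assay measuring inhibition of ATG4B activity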
T1 sequence (Q9Y4P1 whole entry): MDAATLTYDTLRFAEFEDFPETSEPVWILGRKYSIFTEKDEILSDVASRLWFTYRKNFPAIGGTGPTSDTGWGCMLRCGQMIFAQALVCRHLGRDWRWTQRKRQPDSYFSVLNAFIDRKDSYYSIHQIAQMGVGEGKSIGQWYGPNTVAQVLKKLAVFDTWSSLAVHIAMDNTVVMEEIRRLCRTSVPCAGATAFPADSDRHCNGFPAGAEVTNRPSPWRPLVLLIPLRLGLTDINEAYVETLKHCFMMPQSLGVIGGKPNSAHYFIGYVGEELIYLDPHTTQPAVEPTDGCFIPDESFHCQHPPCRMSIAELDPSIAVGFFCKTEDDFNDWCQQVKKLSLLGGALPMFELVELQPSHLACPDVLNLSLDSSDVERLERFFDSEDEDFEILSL

cells [9] = type: functional
INS1 = assay: INS-1E survival protection against cytokine death – cell-based, luminescence, retest, dose response (AID 449756); type: functional; conditions: Rattus norvegicus;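 also: cell death triggered by IL-1 beta plus TNF-alpha plus IFN-gamma mixture; protective hits raise ATP signal compared with cytokine alone wells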
[10] = molecular target: Delta-type opioid receptor (Homo sapiens, UniProt P41143); assay: Counterscreen for agonists of heterodimerization of the mu 1 (OPRM1) and delta 1 (OPRD1) opioid receptors: Luminescence-based cell-based high throughput dose response assay to identify agonists of OPRD1 homodimerization. [Related pubchem assays (depositor defined):AID504326, AID504355, AID504692, AID504904, AID504905]; type: functional
cells [11] = type: functional, cell-based; conditions: HEK-CNG
[12] = molecular target: Glutathione-S-transferase (Schistosoma japonicum, UniProt Q26513); assay: GST-antibody interaction or FRET quenching – biochemical, TR-FRET, artefact control for Vif-APOBEC3G degradation inhibitor project, dose response (AID 1117362); type: functional
[13] = molecular target: T2, Sentrin-specific protease 6 (Homo sapiens, UniProt Q9GZR1); type: functional;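 also: Luminescence-based dose-response confirmatory assay of SENP6 inhibition, following up an ultra-high-throughput screen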
T2 sequence (Q9GZR1 whole entry): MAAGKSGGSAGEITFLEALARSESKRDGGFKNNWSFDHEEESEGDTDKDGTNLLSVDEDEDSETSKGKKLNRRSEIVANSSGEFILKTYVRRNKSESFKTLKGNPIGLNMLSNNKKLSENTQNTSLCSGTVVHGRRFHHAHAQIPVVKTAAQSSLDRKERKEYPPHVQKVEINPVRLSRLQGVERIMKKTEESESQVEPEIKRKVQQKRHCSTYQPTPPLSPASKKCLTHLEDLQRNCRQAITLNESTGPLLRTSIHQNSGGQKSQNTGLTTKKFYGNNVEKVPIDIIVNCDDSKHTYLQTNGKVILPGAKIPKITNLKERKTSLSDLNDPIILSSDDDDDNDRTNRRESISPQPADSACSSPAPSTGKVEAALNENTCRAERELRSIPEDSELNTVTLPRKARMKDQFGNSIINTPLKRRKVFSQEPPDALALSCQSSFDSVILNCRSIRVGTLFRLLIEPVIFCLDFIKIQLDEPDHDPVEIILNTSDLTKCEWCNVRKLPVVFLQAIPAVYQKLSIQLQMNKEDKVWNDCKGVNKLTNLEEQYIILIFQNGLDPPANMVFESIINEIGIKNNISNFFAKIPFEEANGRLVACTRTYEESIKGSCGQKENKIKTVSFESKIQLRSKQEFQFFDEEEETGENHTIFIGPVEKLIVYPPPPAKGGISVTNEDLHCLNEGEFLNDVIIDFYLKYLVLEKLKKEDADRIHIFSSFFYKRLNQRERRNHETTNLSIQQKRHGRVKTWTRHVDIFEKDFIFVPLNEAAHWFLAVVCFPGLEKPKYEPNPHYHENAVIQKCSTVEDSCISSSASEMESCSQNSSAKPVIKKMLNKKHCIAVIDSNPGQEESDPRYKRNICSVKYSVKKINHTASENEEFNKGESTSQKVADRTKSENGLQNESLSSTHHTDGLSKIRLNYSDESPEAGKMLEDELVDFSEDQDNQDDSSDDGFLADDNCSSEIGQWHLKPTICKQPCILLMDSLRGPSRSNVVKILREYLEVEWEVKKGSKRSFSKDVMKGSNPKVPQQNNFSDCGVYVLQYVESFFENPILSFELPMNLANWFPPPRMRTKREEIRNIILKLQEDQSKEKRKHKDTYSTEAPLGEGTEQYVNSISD

Caspase-6 = molecular target: T3, Caspase-6 (Homo sapiens, UniProt P55212); assay: inhibition of CASP6 peptide cleavage – biochemical, VEID-R110 fluorescence, cherry-pick, dose response (AID 720632)
T3 sequence (P55212 whole entry): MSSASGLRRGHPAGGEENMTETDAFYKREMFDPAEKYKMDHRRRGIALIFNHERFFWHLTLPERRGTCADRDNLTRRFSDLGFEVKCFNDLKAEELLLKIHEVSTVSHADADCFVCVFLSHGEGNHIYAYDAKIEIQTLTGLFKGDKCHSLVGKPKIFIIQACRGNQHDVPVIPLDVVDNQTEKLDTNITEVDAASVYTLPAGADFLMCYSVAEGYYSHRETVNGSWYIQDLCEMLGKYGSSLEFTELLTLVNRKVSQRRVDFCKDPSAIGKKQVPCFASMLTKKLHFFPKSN

Caspase-7 = Caspase-7 (Homo sapiens, UniProt P55210); assay: caspase-7 enzyme inhibition, selectivity check – biochemical, DEVD-R110 fluorescence, cherry-pick, selectivity assay for caspase-6 inhibitor project, dose response (AID 743295); type: functional
Chain of Caspase-7 (P55210 24-198 limits assumed): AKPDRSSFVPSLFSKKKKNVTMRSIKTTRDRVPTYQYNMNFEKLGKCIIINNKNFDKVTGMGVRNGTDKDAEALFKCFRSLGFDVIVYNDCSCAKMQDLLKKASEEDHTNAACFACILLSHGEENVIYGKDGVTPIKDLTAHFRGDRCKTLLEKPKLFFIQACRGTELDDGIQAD
Chain of Caspase-7 (P55210 207-303 limits assumed): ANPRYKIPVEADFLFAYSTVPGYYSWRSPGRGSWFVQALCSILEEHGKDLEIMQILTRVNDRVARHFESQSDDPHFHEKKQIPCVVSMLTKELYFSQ

Chain of Glutathione-S-transferase (Q26513 whole entry): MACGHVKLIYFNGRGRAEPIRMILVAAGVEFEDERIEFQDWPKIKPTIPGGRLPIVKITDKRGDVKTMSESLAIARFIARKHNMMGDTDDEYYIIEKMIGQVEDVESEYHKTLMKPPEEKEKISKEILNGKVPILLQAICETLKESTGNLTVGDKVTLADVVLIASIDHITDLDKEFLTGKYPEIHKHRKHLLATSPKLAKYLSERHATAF
Chain of Delta-type opioid receptor (P41143 whole entry): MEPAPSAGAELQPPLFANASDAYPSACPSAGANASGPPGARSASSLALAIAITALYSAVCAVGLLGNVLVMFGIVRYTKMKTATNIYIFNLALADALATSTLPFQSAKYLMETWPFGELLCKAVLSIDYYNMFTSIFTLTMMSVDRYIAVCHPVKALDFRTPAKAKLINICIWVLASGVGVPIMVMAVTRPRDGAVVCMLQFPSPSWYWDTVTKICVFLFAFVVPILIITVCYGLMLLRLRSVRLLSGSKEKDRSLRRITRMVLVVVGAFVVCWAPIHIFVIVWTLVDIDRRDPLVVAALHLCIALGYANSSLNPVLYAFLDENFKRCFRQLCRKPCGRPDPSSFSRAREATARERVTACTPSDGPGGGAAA
Chain of Mothers against decapentaplegic homolog 3 (P84022 whole entry): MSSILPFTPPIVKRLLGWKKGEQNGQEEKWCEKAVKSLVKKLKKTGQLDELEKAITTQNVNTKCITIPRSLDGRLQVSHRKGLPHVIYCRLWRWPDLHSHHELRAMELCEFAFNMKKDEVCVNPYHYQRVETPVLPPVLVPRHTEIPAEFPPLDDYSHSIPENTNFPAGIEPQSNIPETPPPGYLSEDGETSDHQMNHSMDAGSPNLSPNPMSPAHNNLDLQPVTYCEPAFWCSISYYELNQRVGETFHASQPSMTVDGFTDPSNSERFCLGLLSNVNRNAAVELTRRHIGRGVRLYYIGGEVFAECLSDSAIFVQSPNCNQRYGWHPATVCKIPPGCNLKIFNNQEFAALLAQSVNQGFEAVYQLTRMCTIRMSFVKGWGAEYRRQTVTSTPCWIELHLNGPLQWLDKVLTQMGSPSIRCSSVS

Cc1nc2c(=O)n(C)c(=O)nc-2n(C)n1
EC50 [1]: 0.235 µM (active) | EC50 [2]: 0.251 µM (inconclusive) | EC50 [3]: 0.136 µM (active) | IC50 [4]: 0.038 µM (active) | EC50 [5]: 0.821 µM (active) | CC50 [6]: 4.16 µM (active) | CC50 [7]: 4.51 µM (active) | CC50 [8]: 7.94 µM (active) | IC50 (Cysteine protease ATG4B): 3.73 µM (active) | IC50 (cells [9]): 2.27 µM (active) | AC50 (INS1): 0.695 µM (active)

O=C1C=C(c2c(O)ccc3ccccc23)c2ccccc2C1=O
EC50 [10]: > 92.4 µM (inactive) | EC50 (cells [11]): > 29.9 µM (inactive) | IC50 [12]: > 100 µM (active)

Oc1nc(Nc2ccccc2Cl)cc2ccccc12
IC50 [13]: 3.14 µM (active) | AC50 (Caspase-6): 3.75 µM (active) | AC50 (Caspase-7): 12.2 µM (active)
